Values after ≈ are worked out from the molar mass of the structure shown.
Each compound was assayed on KB (assay: Cytotoxicity against human KB cells).
Format: functional, cell-based

SMILES	IC50
C=C(C)C(CC=C(C)C)Cc1c(O)cc(O)c2c(=O)c(O)c(-c3ccc(O)cc3)oc12 (stereo not given)	24.3 µg/mL (≈ 57.5 µM)
CC(C)=CCc1cc(-c2cc3cc4c(cc3o2)OCO4)c(O)cc1O	8 µg/mL (≈ 23.6 µM)
COc1cc2c(c(O)c1C(=O)/C=C/c1ccc(O)cc1O)CC(CC=C(C)C)C(C)(C)O2 (stereo not given) [CYCLOKURARIDIN]	15.1 µg/mL (≈ 34.4 µM)
C=C(C)C(CC=C(C)C)Cc1c(O)cc(OC)c(C(=O)C(=O)c2ccc(O)cc2O)c1O (stereo not given) [SOPHORADIONE]	29.4 µg/mL (≈ 66.7 µM)
CC(C)=CCOc1cc(O)c2c(c1CC=C(C)C)OC(c1ccc(O)cc1O)CC2=O (stereo not given) [SOPHORAFLAVANONE L]	7.1 µg/mL (≈ 16.7 µM)

Source: ChEMBL document CHEMBL1158045, “Phenolic constituents of the roots of Sophora flavescens” (J Nat Prod, 2006)
